In the kinase profiling compilation of Christmann-Franck et al. (2016):
Where “and” joins values, the source holds several entries; their conditions need not be identical. Equal entries are not always repeated.

Experiments:
Experiment in all cases: Caliper, Mobility shift assay off-chip
[1] = target: RIPK2 (human) (UniProt O43353)
[2] = target: MAPK14 (human) (UniProt Q16539)
[3] = target: IKBKB (human) (UniProt O14920)
[4] = target: PRKCG (human) (UniProt P05129)
[5] = target: PRKCI (human) (UniProt P41743)
[6] = target: MAPK12 (human) (UniProt P53778)
MAPK12 (human), sequence (P53778 whole entry, looked up): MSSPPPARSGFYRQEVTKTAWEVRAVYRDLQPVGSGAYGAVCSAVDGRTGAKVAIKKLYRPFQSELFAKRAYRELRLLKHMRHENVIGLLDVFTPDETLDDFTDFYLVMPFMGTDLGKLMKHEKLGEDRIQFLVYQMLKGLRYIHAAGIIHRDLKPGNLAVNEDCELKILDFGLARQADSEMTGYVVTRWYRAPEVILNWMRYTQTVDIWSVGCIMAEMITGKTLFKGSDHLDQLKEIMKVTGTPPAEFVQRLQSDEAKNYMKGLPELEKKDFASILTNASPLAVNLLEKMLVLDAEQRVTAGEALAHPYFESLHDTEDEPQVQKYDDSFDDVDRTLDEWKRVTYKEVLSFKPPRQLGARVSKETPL

[7] = target: RAF1 (human) (UniProt P04049)
[8] = target: EPHA4 (human) (UniProt P54764)
[9] = target: NEK6 (human) (UniProt Q9HC98)
[10] = target: FGFR3 (human) (UniProt P22607)
[11] = target: KDR (human) (UniProt P35968)
[12] = target: CHEK1 (human) (UniProt O14757)
[13] = target: IGF1R (human) (UniProt P08069)
IGF1R (human), sequence (P08069 whole entry, looked up): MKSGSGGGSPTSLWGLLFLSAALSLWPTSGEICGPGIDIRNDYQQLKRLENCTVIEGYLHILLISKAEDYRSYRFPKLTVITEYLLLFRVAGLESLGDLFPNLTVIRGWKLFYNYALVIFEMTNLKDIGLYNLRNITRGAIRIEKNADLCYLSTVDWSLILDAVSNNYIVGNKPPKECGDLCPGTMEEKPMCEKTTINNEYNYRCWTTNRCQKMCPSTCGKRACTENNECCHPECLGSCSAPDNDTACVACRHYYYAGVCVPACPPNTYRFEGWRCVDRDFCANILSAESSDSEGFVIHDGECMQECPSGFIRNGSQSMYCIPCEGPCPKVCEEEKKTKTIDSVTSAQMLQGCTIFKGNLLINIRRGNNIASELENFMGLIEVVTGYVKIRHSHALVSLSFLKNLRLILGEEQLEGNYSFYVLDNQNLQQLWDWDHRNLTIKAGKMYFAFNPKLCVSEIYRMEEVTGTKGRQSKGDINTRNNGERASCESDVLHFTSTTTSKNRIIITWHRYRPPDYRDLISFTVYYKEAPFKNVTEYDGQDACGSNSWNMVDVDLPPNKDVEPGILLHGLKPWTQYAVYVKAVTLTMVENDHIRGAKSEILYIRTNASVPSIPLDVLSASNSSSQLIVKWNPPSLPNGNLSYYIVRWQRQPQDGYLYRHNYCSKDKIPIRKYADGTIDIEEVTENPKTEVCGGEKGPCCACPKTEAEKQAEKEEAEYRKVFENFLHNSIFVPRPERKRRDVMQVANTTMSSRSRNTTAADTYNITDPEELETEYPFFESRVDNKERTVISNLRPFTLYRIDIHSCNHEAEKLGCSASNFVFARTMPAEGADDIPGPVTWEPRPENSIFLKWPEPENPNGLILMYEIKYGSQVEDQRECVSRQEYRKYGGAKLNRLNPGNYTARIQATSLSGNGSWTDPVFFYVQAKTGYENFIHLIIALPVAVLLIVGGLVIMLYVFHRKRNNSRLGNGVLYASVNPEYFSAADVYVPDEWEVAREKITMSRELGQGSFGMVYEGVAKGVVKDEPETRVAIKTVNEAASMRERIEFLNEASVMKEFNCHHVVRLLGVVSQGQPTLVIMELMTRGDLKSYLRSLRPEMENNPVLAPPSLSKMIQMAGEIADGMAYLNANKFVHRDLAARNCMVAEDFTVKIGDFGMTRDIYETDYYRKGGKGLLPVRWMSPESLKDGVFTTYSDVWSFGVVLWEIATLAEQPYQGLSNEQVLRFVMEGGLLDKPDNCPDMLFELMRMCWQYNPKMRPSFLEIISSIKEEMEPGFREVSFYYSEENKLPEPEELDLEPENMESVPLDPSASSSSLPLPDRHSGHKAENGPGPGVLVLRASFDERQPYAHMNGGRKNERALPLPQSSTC

[14] = target: PIM2 (human) (UniProt Q9P1W9)
[15] = target: PLK3 (human) (UniProt Q9H4B4)
[16] = target: MAPK11 (human) (UniProt Q15759)
[17] = target: FLT3 (human) (UniProt P36888)
[18] = target: ALK (human) (UniProt Q9UM73)
[19] = target: TEK (human) (UniProt Q02763)
[20] = target: ZAP70 (human) (UniProt P43403)
[21] = target: MAPK13 (human) (UniProt O15264)
[22] = target: RPS6KA1 KD1 KD2 (human) (UniProt Q15418)
[23] = target: BRSK2 (human) (UniProt Q8IWQ3)
[24] = target: KIT (human) (UniProt P10721)
KIT (human), sequence (P10721 whole entry, looked up): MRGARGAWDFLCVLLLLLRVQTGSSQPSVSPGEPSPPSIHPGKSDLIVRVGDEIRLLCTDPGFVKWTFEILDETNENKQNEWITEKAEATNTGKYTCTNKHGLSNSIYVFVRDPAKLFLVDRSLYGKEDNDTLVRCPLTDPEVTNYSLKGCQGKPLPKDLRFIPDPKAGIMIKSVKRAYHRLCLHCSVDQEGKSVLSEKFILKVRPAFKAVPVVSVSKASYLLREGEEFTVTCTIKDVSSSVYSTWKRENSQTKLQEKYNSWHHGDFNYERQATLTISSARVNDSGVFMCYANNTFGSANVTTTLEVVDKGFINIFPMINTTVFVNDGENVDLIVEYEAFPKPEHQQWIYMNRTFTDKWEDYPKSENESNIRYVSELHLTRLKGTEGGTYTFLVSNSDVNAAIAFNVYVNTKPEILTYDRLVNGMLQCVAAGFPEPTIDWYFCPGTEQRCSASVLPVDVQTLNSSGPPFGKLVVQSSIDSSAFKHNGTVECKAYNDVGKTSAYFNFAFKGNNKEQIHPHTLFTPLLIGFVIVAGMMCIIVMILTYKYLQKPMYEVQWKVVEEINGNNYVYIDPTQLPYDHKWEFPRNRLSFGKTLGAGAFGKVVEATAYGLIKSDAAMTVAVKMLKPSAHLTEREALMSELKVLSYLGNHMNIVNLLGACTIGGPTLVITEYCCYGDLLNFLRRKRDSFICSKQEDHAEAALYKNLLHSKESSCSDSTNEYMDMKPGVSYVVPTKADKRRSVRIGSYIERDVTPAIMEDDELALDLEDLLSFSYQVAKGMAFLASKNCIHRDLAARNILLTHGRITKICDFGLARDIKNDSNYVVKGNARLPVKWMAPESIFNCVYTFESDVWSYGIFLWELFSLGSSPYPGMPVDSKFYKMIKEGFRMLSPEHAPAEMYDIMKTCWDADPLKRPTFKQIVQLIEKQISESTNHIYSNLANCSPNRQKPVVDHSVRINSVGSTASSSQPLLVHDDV

[25] = target: AKT1 (human) (UniProt P31749)
[26] = target: PIM1 (human) (UniProt P11309)
[27] = target: ROCK1 (human) (UniProt Q13464)
[28] = target: EGFR (human) (UniProt P00533)
EGFR (human), sequence (P00533 whole entry, looked up): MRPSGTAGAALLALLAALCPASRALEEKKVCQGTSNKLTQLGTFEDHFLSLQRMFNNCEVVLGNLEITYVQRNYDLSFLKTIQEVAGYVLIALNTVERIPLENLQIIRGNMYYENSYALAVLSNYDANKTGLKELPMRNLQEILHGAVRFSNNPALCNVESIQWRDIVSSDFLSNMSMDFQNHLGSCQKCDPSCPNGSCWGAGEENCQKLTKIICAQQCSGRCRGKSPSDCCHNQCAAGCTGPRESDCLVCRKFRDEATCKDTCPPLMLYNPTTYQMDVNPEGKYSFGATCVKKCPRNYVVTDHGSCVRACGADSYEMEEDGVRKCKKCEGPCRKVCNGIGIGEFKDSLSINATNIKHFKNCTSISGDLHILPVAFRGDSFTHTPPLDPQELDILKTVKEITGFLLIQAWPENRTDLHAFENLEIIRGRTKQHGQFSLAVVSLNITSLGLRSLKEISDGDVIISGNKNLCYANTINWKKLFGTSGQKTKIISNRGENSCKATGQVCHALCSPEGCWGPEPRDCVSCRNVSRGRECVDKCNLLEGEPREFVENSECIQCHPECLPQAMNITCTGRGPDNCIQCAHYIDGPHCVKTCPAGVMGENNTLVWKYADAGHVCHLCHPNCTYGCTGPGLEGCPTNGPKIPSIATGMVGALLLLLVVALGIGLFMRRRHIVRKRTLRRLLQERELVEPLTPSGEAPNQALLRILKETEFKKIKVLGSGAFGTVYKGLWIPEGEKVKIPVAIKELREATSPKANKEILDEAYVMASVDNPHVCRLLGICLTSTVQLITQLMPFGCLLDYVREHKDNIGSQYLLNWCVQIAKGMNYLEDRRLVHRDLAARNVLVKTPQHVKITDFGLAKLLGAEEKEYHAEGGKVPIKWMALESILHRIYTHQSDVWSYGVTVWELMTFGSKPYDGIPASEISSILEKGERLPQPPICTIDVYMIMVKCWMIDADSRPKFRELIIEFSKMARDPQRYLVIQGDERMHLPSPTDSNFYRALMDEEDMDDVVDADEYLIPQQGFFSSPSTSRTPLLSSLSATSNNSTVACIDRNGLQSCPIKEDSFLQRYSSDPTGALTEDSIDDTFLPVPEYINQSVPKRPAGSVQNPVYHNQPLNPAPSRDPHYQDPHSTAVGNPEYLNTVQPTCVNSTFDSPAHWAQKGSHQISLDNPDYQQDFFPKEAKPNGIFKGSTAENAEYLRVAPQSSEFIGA

[29] = target: NEK2 (human) (UniProt P51955)
[30] = target: MAPKAPK5 (human) (UniProt Q8IW41)
MAPKAPK5 (human), sequence (Q8IW41 whole entry, looked up): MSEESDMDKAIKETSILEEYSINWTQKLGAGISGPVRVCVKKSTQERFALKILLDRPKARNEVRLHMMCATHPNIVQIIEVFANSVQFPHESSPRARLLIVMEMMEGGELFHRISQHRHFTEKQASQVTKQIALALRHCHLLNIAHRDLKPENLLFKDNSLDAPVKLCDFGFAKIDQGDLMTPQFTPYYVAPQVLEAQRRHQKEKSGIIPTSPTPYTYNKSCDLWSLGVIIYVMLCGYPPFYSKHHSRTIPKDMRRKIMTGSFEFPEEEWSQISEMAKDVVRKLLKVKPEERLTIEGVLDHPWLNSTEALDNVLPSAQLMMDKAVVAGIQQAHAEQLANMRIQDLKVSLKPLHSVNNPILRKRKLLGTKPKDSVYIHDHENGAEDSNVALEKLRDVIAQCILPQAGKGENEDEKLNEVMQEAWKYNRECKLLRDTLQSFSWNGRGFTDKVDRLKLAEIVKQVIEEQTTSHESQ

[31] = target: MAP3K7 (human) (UniProt O43318)
[32] = target: RPS6KB1 (human) (UniProt P23443)
[33] = target: PRKCA (human) (UniProt P17252)
[34] = target: FGFR1 (human) (UniProt P11362)
[35] = target: MAPKAPK2 (human) (UniProt P49137)
[36] = target: PAK4 (human) (UniProt O96013)
[37] = target: MAPK8 (human) (UniProt P45983)
[38] = target: SRC (human) (UniProt P12931)
SRC (human), sequence (P12931 whole entry, looked up): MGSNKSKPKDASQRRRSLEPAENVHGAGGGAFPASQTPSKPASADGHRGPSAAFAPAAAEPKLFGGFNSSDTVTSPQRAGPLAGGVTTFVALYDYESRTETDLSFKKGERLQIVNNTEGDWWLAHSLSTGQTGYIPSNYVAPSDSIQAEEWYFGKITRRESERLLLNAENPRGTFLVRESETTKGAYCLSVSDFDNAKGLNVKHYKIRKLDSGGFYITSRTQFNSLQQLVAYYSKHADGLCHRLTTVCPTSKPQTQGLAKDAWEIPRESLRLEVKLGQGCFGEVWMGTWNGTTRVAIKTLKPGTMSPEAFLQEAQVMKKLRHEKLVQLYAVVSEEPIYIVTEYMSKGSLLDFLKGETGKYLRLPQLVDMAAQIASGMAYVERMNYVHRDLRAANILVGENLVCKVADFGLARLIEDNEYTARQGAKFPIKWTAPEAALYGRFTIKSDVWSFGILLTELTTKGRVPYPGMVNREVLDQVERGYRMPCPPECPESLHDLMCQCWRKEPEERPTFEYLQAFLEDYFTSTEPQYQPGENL

[39] = target: EPHA2 (human) (UniProt P29317)
[40] = target: RPS6KA5 KD1 KD2 (human) (UniProt O75582)
[41] = target: CDK2 CCNA2 (human) (UniProt P24941+P20248)

With O=C(N[C@@H](COc1ccc2[nH]c(=O)[nH]c2c1)c1ccccc1)c1cccn(Cc2ccc(F)c(F)c2)c1=O the residual activity ([1]; compound 10.0 µM) was 101%, the residual activity ([2]; compound 10.0 µM) was 107% and the residual activity ([3]; compound 10.0 µM) was 100%. It also gave a residual activity ([4]; compound 10.0 µM) of 104%, a residual activity ([5]; compound 10.0 µM) of 97% and a residual activity ([6]; compound 10.0 µM) of 115%. The residual activity ([7]; compound 10.0 µM) was 109%, the residual activity ([8]; compound 10.0 µM) was 101% and the residual activity ([9]; compound 10.0 µM) was 99%. The residual activity ([10]; compound 10.0 µM) was 122%, the residual activity ([11]; compound 10.0 µM) was 101% and the residual activity ([12]; compound 10.0 µM) was 105%. It also gave a residual activity ([13]; compound 10.0 µM) of 116%, a residual activity ([14]; compound 10.0 µM) of 100% and a residual activity ([15]; compound 10.0 µM) of 96%. It also gave a residual activity ([16]; compound 10.0 µM) of 100%, a residual activity ([17]; compound 10.0 µM) of 103% and a residual activity ([18]; compound 10.0 µM) of 116%. It also gave a residual activity ([19]; compound 10.0 µM) of 105%, a residual activity ([20]; compound 10.0 µM) of 100% and a residual activity ([21]; compound 10.0 µM) of 114%. The residual activity ([22]; compound 10.0 µM) was 107%, the residual activity ([23]; compound 10.0 µM) was 111% and the residual activity ([24]; compound 10.0 µM) was 107%. For the same compound, the residual activity ([25]; compound 10.0 µM) was 107%, the residual activity ([26]; compound 10.0 µM) was 104% and the residual activity ([27]; compound 10.0 µM) was 97%. For the same compound, the residual activity ([28]; compound 10.0 µM) was 89%, the residual activity ([29]; compound 10.0 µM) was 94% and the residual activity ([30]; compound 10.0 µM) was 98%. It also gave a residual activity ([31]; compound 10.0 µM) of 101%, a residual activity ([32]; compound 10.0 µM) of 104% and a residual activity ([33]; compound 10.0 µM) of 98%. For the same compound, the residual activity ([34]; compound 10.0 µM) was 86%, the residual activity ([35]; compound 10.0 µM) was 98% and the residual activity ([36]; compound 10.0 µM) was 105%. The residual activity ([37]; compound 10.0 µM) was 125%, the residual activity ([38]; compound 10.0 µM) was 94% and 101% and the residual activity ([39]; compound 10.0 µM) was 127%. For the same compound, the residual activity ([40]; compound 10.0 µM) was 109% and the residual activity ([41]; compound 10.0 µM) was 99%.

C[C@@H](Nc1nc2c(C#CC3CC3)c[nH]c(=O)c2c2cc(-c3cn[nH]c3)ccc12)C(C)(C)C gave a residual activity ([1]; compound 1.0 µM) of 51%, a residual activity ([2]; compound 1.0 µM) of 107% and a residual activity ([3]; compound 1.0 µM) of 92%. The residual activity ([4]; compound 1.0 µM) was 95%, the residual activity ([5]; compound 1.0 µM) was 98% and the residual activity ([6]; compound 1.0 µM) was 106%. For the same compound, the residual activity ([7]; compound 1.0 µM) was 107%, the residual activity ([8]; compound 1.0 µM) was 103% and the residual activity ([9]; compound 1.0 µM) was 110%. For the same compound, the residual activity ([10]; compound 1.0 µM) was 60%, the residual activity ([11]; compound 1.0 µM) was 42% and the residual activity ([12]; compound 1.0 µM) was 46%. For the same compound, the residual activity ([13]; compound 1.0 µM) was 85%, the residual activity ([14]; compound 1.0 µM) was 99% and the residual activity ([15]; compound 1.0 µM) was 85%. For the same compound, the residual activity ([16]; compound 1.0 µM) was 110%, the residual activity ([17]; compound 1.0 µM) was 43% and the residual activity ([18]; compound 1.0 µM) was 77%. The residual activity ([19]; compound 1.0 µM) was 109%, the residual activity ([20]; compound 1.0 µM) was 104% and the residual activity ([21]; compound 1.0 µM) was 108%. The residual activity ([22]; compound 1.0 µM) was 20%, the residual activity ([23]; compound 1.0 µM) was 15% and the residual activity ([24]; compound 1.0 µM) was 109%. It also gave a residual activity ([25]; compound 1.0 µM) of 98%, a residual activity ([26]; compound 1.0 µM) of 107% and a residual activity ([27]; compound 1.0 µM) of 102%. For the same compound, the residual activity ([28]; compound 1.0 µM) was 116%, the residual activity ([29]; compound 1.0 µM) was 116% and the residual activity ([30]; compound 1.0 µM) was 75%. For the same compound, the residual activity ([31]; compound 1.0 µM) was 90%, the residual activity ([32]; compound 1.0 µM) was 45% and the residual activity ([33]; compound 1.0 µM) was 108%. The residual activity ([34]; compound 1.0 µM) was 29%, the residual activity ([35]; compound 1.0 µM) was 115% and the residual activity ([36]; compound 1.0 µM) was 95%. For the same compound, the residual activity ([37]; compound 1.0 µM) was 87%, the residual activity ([38]; compound 1.0 µM) was 83% and 87% and the residual activity ([39]; compound 1.0 µM) was 131%. The residual activity ([40]; compound 1.0 µM) was 83% and the residual activity ([41]; compound 1.0 µM) was 104%.
